# Assay results: article PMC9163831 (Frontiers in Microbiology, 2022)
# Assays:
# [1] = tested on: mcr-1-positive Salmonella; assay: MIC of colistin with and without IBG; assay type: cell-based
# Protocol: (§1) The susceptibility of the selected Salmonella isolates and quality control isolate (ATCC 25922) to colistin and IBG in MH broth was investigated in accordance with the methods and quality control requirements recommended by the Clinical and Laboratory Standards Institute. Minimal inhibitory concentration (MIC) was the lowest concentration of colistin where visible bacterial growth was inhibited after 24 h of incubation. E. coli ATCC 25922 was used as the quality control strain to ensure the credibility of MICs tested. Susceptibility testing was performed in triplicate and germ-free controls (blank medium). The minimum bactericidal concentration (MBC) in MH broth was measured according to a previous report (Lei et al., [2017]). The synergistic activity between colistin and IBG, and the fractional inhibitory concentration indices (FICI) were measured by checkerboard assays, based on the MIC of each drug (MacNair et al., [2018]). In brief, 50 μL of broth was added to each well, and 50 μL of the indicated concentration of colistin was added into the first well of each line. This process was followed by multiple proportion dilution. Next, 50 μL of samples of different IBG concentrations was added to the dilution medium, and 100 μL of inoculum with a cell density of ~1 × 10^6 colony-forming units (CFU)/mL was added to each well.
# [2] = tested on: mcr-1-positive Salmonella; assay: Dose determination from AUC/MIC targets; assay type: in vivo, broilers; conditions: combination: with 32 mg/kg of IBG
# Description: The potential optimal dosage can be calculated using the following equation (Toutain et al., [2002], [2007]):
# (3) Dose=(AUC/MIC)·MIC·CL/fu·F,
# where dose (per day) is at steady state; CL is the clearance per day; AUC/MIC is the targeted endpoint for optimal efficacy in hours; MIC is the target pathogen; F is the bioavailability factor (from 0 to 1), and fu is the free fraction of the drug (from 0 to 1). In this study, fu = 1.
# [3] = tested on: mcr-1-positive Salmonella; assay: In vitro time-killing curves; assay type: cell-based
# Protocol: After MIC determination, different concentrations of colistin were prepared in broth ranging from different doses before bacterial inoculation (10^6 CFU/mL). Growth was checked with control. The tubes containing bacteria and different concentrations of colistin and IBG were incubated at 37°C. The bacterial count (CFU/mL) was determined for each tube after 0, 1, 2, 4, 6, 8, 12, and 24 h of incubation. In brief, 100 μL of culture was obtained for each time point, and serially diluted, and the colonies were counted the next morning. Each concentration test was performed in triplicate.
# [4] = tested on: mcr-1-positive Salmonella; assay: Pharmacodynamics of colistin combined with IBG in an intestinal infection model; assay type: in vivo, broilers
# Protocol: Broilers were inoculated by oral gavage with 1 mL of mcr-1-positive Salmonella culture containing […]. Necropsies of broilers that had died from infection and of euthanized animals were investigated, and the ileum content samples of broilers were taken as previously described (Addwebi et al., [2014]; Wang et al., [2020]). DNA was extracted from ileum content samples using a fecal DNA extraction kit (G-Clone, Beijing, China) in accordance with the manufacturer's instructions.
# Pharmacodynamic analysis of combined colistin and IBG treatment in mcr-1-positive Salmonella infection broilers was performed at 3 h after administration of the inoculum. Afterward, 32 mg/kg of IBG was combined with 2, 4, 8, or 16 mg/kg of colistin, and colistin and IBG were also tested alone at 2, 4, 8, and 16 mg/kg (n = 4 for each group). The broilers were sacrificed after 24 h of therapy, and the intestinal content samples were aseptically removed and homogenized for CFU determination. Untreated control broilers were sacrificed before colistin treatment and at 24 h after treatment.
# [5] = parameters: method as in Mead et al. ([2021]); conditions: oral administration, 75,000 I.U./kg, chicken; ref Mead et al. ([2021]); cited from earlier work
# [6] = tested on: mcr-1-positive Salmonella; assay: PK/PD analysis, inhibitory effect Imax model; assay type: in vivo, broilers
# Protocol: PK/PD analysis was conducted using the inhibitory effect Imax model (Riviere and Toutain, [2011]). This model is described by the following equation: […]
# where E is the antibacterial effect, measured as change in log10CFU/g after 24 h of treatment, compared with the initial log10CFU/g in the untreated control broiler; E0 is the difference in the number of bacteria (log10CFU/g) in control samples between time 0 and 24 h. Imax is the maximum antimicrobial growth inhibition determined as the change in log10CFU/g after 24 h treatment with colistin combined with IBG. X is the predictive variable (expressed as AUC0−24h/MIC, Cmax/MIC, and %T>MIC), and IC50 is the X value producing 50% of the maximum antibacterial effect. The relationship between efficacy and the three PK/PD indices was determined by non-linear least-squares regression in a Phoenix WinNonlin® PD model. The coefficient of determination (R^2) was used to estimate the variance caused by regression for each PK/PD index.
# Salmonella ATCC14028 = assay: Antimicrobial combination susceptibility testing (MIC, MBC, checkerboard FICI) in MH broth; assay type: cell-based, S. typhimurium; conditions: for MBC / MIC: alone; for MIC (in combination): colistin + IBG checkerboard
# Protocol: as §1, with “well. The FICI was calculated follows:” for “well.”
# (§2) (1) FICI=MIC(Colistinincombination)/MIC(Colistin)+MIC(IBGincombination)/MIC(IBG).
# [7] = tested on: Salmonella 26FS26 (mcr-1); assay: as above; assay type: cell-based, S. typhimurium; conditions: for MIC (in combination): colistin + IBG checkerboard
# Protocol: as §1, with “well. The FICI was calculated follows:” for “well.”
# as §2
# Salmonella S235 (mcr-1) = assay: as above; assay type: cell-based, S. typhimurium; conditions: for MIC (in combination): colistin + IBG checkerboard
# Protocol: as §1, with “well. The FICI was calculated follows:” for “well.”
# as §2
# Salmonella S226 (mcr-1) = assay: as above; assay type: cell-based, S. typhimurium; conditions: for MIC (in combination): colistin + IBG checkerboard
# Protocol: as §1, with “well. The FICI was calculated follows:” for “well.”
# as §2
# [8] = tested on: Salmonella 26FS14 (mcr-1); assay: as above; assay type: cell-based, S. typhimurium; conditions: for MIC (in combination): colistin + IBG checkerboard
# Protocol: as §1, with “well. The FICI was calculated follows:” for “well.”
# as §2
# [9] = Pharmacokinetics of colistin in ileum contents, mcr-1-positive Salmonella infection model; assay type: in vivo, broilers; conditions: for AUC0-24h (intestinal colistin) / Cmax (peak intestinal colistin concentration) / T>MIC: infected broiler
# Protocol: After 7-day acclimation, 200 infected broilers were randomly divided into five groups (n = 40/group). Pharmacokinetic analysis of colistin (2, 4, 8, and 16 mg/kg) alone and in combination (4 mg/kg colistin, 32 mg/kg IBG) was performed in mcr-1-positive Salmonella infection broilers following oral gavage. At 0.25, 0.5, 0.75, 1, 2, 4, 6, 8, 12, and 24 h after oral administration, four broilers per group were humanely killed and ileum contents (0.5 g) were sampled. The concentration of colistin in each ileum content sample was determined by validated liquid chromatography-tandem mass spectrometry (LC-MS/MS), with minor modifications. Briefly, intestinal contents (0.5 g) were extracted with 10 mL of 10% trichloroacetic acid and 10 mL of 4% lead acetate, homogenized for 1 min, ultrasonicated (30 min) and centrifuged (10,000 g, 10 min) to obtain supernatant. Thereafter, 2 mL of extraction solution was applied to HLB SPE cartridges, which were prewashed with 3 mL of methanol and 3 mL of water. The cartridges were then rinsed with 3 mL of 4% lead acetate. Afterward, the colistin was eluted with 6 mL of 20% methanol. The elute was evaporated to dryness under a gentle N2 stream at 40°C and the residue was dissolved in 0.5 mL of 0.1% formic acid for concentration analysis. The drug concentrations in intestinal contents were determined using HPLC-MS/MS. The calibration range was 0.25–5 μg/g. The intraday and interday precision levels varied from 2.1 to 9.8% and from 4.5 to 7.0%, respectively. The limit of detection (LOD) and limit of quantification (LOQ) were 0.10 and 0.25 μg/g, respectively.
# The values of colistin intestinal content PK parameters in single-dose PK studies were obtained by non-compartmental analysis in Phoenix WinNonlin® 8.2 (Certara, L.P., Princeton, NJ, USA).
# [10] = parameters: method as in Xiao et al., [2018]; conditions: IBG supplementation; ref Xiao et al., [2018]; cited from earlier work
# [11] = tested on: human lung epithelial cells (A549); parameters: method as in Zhang et al., [2019]; conditions: ref Zhang et al., [2019]; cited from earlier work
# erythrocytes in mice = tested on: erythrocytes in mice; parameters: method as in Zhang et al., [2019]; conditions: ref Zhang et al., [2019]; cited from earlier work
# [12] = single gavage 16 mg/kg colistin
compound,measurement,setting,value
Colistin sulfate,MIC of colistin,[1]; colistin alone,2 µg/mL
same,MIC of colistin in the presence of IBG,[1]; in the presence of 8 mg/L of IBG,0.25 µg/mL
same,Dose of colistin required to reach 1 × log10 kill,[2],7.54 mg/kg
same,Dose of colistin required to reach 3 × log10 kill,[2],could not achieve
same,Dose of colistin required to reach 4 × log10 kill,[2],could not achieve
same,Dose of colistin required to reach stasis,[2],1.94 mg/kg
same,Time-kill result,"[3]; colistin at 4 mg/L, mcr-1-positive Salmonella",Persisting inhibition of bacterial growth
same,Killing characteristic (time-kill profiles),"[3]; varying concentrations, 24 h",concentration-dependent killing
same,Effect on broilers infected with mcr-1 positive Salmonella,[4]; single dose of 2–16 mg/kg of colistin every 24 h,not significant effect
same,3 × log10 kill effect in vivo,"[4]; ≤ 16 mg/kg of colistin, monotherapy",could not achieve
same,Time to colistin levels below the LOQ after dosing cessation,[5],≤ 4 h
same,E0,"[6]; Imax model, AUC0-24h/MIC index",0.51 log10CFU/g
same,IC50 (AUC0-24h/MIC producing 50% of the maximum antibacterial effect),"[6]; Imax model, AUC0-24h/MIC index",122.19
same,Imax,"[6]; Imax model, AUC0-24h/MIC index",4.55 log10CFU/g
same,AUC0-24h/MIC for 1 log10 kill,[6]; intestinal infection model,60.66
same,AUC0-24h/MIC for 2 log10 kill,[6]; intestinal infection model,150.15
same,AUC0-24h/MIC for bacteriostatic action,[6]; intestinal infection model,15.62
same,MBC,Salmonella ATCC14028,1 µg/mL
same,MIC,Salmonella ATCC14028,0.5 µg/mL
same,MIC (in combination),Salmonella ATCC14028,0.125 µg/mL
same,MBC,[7]; alone,4 µg/mL
same,MIC,[7]; alone,2 µg/mL
same,MIC (in combination),[7],0.5 µg/mL
same,MBC,Salmonella S235 (mcr-1); alone,4 µg/mL
same,MIC,Salmonella S235 (mcr-1); alone,2 µg/mL
same,MIC (in combination),Salmonella S235 (mcr-1),0.25 µg/mL
same,MBC,Salmonella S226 (mcr-1); alone,4 µg/mL
same,MIC,Salmonella S226 (mcr-1); alone,2 µg/mL
same,MIC (in combination),Salmonella S226 (mcr-1),0.25 µg/mL
same,MBC,[8]; alone,4 µg/mL
same,MIC,[8]; alone,2 µg/mL
same,MIC (in combination),[8],0.25 µg/mL
same,Colistin in ileum samples after 4 h,"[9]; doses <16 mg/kg, after gavage",no colistin was detectable
same,AUC0-24h (intestinal colistin),[9]; single gavage 2 mg/kg colistin,31.58 µg·h/mL
same,Cmax (peak intestinal colistin concentration),[9]; single gavage 2 mg/kg colistin,13.74 µg/mL
same,T>MIC,[9]; single gavage 2 mg/kg colistin,15.11%
same,AUC0-24h (intestinal colistin),[9]; single gavage 4 mg/kg colistin,43.79 µg·h/mL
same,Cmax (peak intestinal colistin concentration),[9]; single gavage 4 mg/kg colistin,34.37 µg/mL
same,T>MIC,[9]; single gavage 4 mg/kg colistin,16.48%
same,AUC0-24h (intestinal colistin),[9]; single gavage 8 mg/kg colistin,191.81 µg·h/mL
same,Cmax (peak intestinal colistin concentration),[9]; single gavage 8 mg/kg colistin,75.92 µg/mL
same,T>MIC,[9]; single gavage 8 mg/kg colistin,16.62%
same,AUC0-24h (intestinal colistin),[9]; [12],505.29 µg·h/mL
same,Cmax (peak intestinal colistin concentration),[9]; [12],151.15 µg/mL
same,T>MIC,[9]; [12],99.98%
"CC(C)Oc1ccc(/C=N/NC(=N)N/N=C/c2ccc(OC(C)C)cc2)cc1 [IBG, isopropoxy benzene guanidine]",Adverse reactions in broilers,[10],without adverse reactions
same,Average daily gain of broilers,[10],improved
same,Diarrhea rate of broilers,[10],reduced
same,Cytotoxicity IC50,[11],28 µg/mL
same,HC50,erythrocytes in mice,> 400 µg/mL
same,MBC,Salmonella ATCC14028,>512 µg/mL
same,MIC,Salmonella ATCC14028,>512 µg/mL
same,MIC (in combination),Salmonella ATCC14028,4 µg/mL
same,MIC (in combination),[7],16 µg/mL
same,MIC (in combination),Salmonella S235 (mcr-1),16 µg/mL
same,MIC (in combination),Salmonella S226 (mcr-1),16 µg/mL
same,MIC (in combination),[8],8 µg/mL
